What was measured:
Format in all cases: in vivo
[1] = tested on: velvetleaf (Abutilon theophrasti); experiment: Preemergence herbicidal activity, velvetleaf; conditions: Rate of Application 0.3 Kg/Ha, examined after 12-17 days
[2] = tested on: field corn (Zea mays var. Pioneer 3732); experiment: Postemergence herbicidal activity, corn; conditions: rate of application 0.3 Kg/Ha, rated after 12-17 days
[3] = tested on: wheat (Triticum aestivum var. Lew); experiment: Preemergence herbicidal activity, wheat; conditions: Rate of Application 0.3 Kg/Ha, examined after 12-17 days
[4] = tested on: Johnsongrass (Sorghum halepense); experiment: Postemergence herbicidal activity, johnsongrass; conditions: rate of application 0.3 Kg/Ha, rated after 12-17 days
[5] = tested on: green foxtail (Setaria viridis); experiment: Preemergence herbicidal activity, green foxtail; conditions: Rate of Application 0.3 Kg/Ha, examined after 12-17 days
[6] = tested on: wheat (Triticum aestivum var. Lew); experiment: Postemergence herbicidal activity, wheat; conditions: rate of application 0.3 Kg/Ha, rated after 12-17 days
[7] = tested on: field corn (Zea mays var. Pioneer 3732); experiment: Preemergence herbicidal activity, corn; conditions: Rate of Application 0.3 Kg/Ha, examined after 12-17 days
[8] = tested on: soybean (Glycine max var. Winchester); experiment: Postemergence herbicidal activity, soybean; conditions: rate of application 0.3 Kg/Ha, rated after 12-17 days
[9] = tested on: blackgrass (Aloepecurus myosuroides); experiment: Postemergence herbicidal activity, blackgrass; conditions: rate of application 0.3 Kg/Ha, rated after 12-17 days
[10] = tested on: Johnsongrass (Sorghum halepense); experiment: Preemergence herbicidal activity, johnsongrass; conditions: Rate of Application 0.3 Kg/Ha, examined after 12-17 days
[11] = tested on: morningglory (Ipomea lacunosa or Ipomea hederacea); experiment: Preemergence herbicidal activity, morningglory; conditions: Rate of Application 0.3 Kg/Ha, examined after 12-17 days
[12] = tested on: morningglory (Ipomea lacunosa or Ipomea hederacea); experiment: Postemergence herbicidal activity, morningglory; conditions: rate of application 0.3 Kg/Ha, rated after 12-17 days
[13] = tested on: common cocklebur (Xanthium strumarium L.); experiment: Postemergence herbicidal activity, cocklebur; conditions: rate of application 0.3 Kg/Ha, rated after 12-17 days
[14] = tested on: common chickweed (Stellaria media); experiment: Postemergence herbicidal activity, chickweed; conditions: rate of application 0.3 Kg/Ha, rated after 12-17 days
[15] = tested on: soybean (Glycine max var. Winchester); experiment: Preemergence herbicidal activity, soybean; conditions: Rate of Application 0.3 Kg/Ha, examined after 12-17 days
[16] = tested on: velvetleaf (Abutilon theophrasti); experiment: Postemergence herbicidal activity, velvetleaf; conditions: rate of application 0.3 Kg/Ha, rated after 12-17 days
[17] = tested on: green foxtail (Setaria viridis); experiment: Postemergence herbicidal activity, green foxtail; conditions: rate of application 0.3 Kg/Ha, rated after 12-17 days
[18] = tested on: common chickweed (Stellaria media); experiment: Preemergence herbicidal activity, chickweed; conditions: Rate of Application 0.3 Kg/Ha, examined after 12-17 days
[19] = tested on: common cocklebur (Xanthium strumarium L.); experiment: Preemergence herbicidal activity, cocklebur; conditions: Rate of Application 0.3 Kg/Ha, examined after 12-17 days
[20] = tested on: blackgrass (Aloepecurus myosuroides); experiment: Preemergence herbicidal activity, blackgrass; conditions: Alopecurus myosuroides, pre-emergence, Rate of Application 0.3 Kg/Ha, examined after 12-17 days, read-out: PREEMERGENCE HERBICIDAL ACTIVITY (% CONTROL) ALOMY

SMILES | PREEMERGENCE HERBICIDAL ACTIVITY (% CONTROL) ABUTH [1] [%] | Postemergence herbicidal activity (% control) CRN [2] [%] | PREEMERGENCE HERBICIDAL ACTIVITY (% CONTROL) WHT [3] [%] | Postemergence herbicidal activity (% control) SORHA [4] [%] | PREEMERGENCE HERBICIDAL ACTIVITY (% CONTROL) SETVI [5] [%] | Postemergence herbicidal activity (% control) WHT [6] [%] | PREEMERGENCE HERBICIDAL ACTIVITY (% CONTROL) CRN [7] [%] | Postemergence herbicidal activity (% control) SOY [8] [%] | Postemergence herbicidal activity (% control) ALOMY [9] [%] | PREEMERGENCE HERBICIDAL ACTIVITY (% CONTROL) SORHA [10] [%] | PREEMERGENCE HERBICIDAL ACTIVITY (% CONTROL) IPOSS [11] [%] | Postemergence herbicidal activity (% control) IPOSS [12] [%] | Postemergence herbicidal activity (% control) XANPE [13] [%] | Postemergence herbicidal activity (% control) STEME [14] [%] | PREEMERGENCE HERBICIDAL ACTIVITY (% CONTROL) SOY [15] [%] | Postemergence herbicidal activity (% control) ABUTH [16] [%] | Postemergence herbicidal activity (% control) SETVI [17] [%] | PREEMERGENCE HERBICIDAL ACTIVITY (% CONTROL) STEME [18] [%] | other results
CCOC(=O)c1cc2c(N3C(=O)C4=C(CCCC4)C3=O)ccc(Cl)c2[nH]1 [Compound 595, 3-(7-CHLORO-2-ETHOXYCARBONYLINDOL4-YL)-4,5,6,7-TETRAHYDRO-1H-ISOINDOLE-1,3(2H)-DIONE] | 60 | 60 | 0 | 20 | 0 | 10 | 0 | 50 | 10 | 40 | 50 | 40 | 20 | 0 | 10 | 30 | 20 | 10 | PREEMERGENCE HERBICIDAL ACTIVITY (% CONTROL) XANPE [19]: 20%
COc1nc2c(-n3c(=O)cc(C(F)(F)F)n(C)c3=O)c(F)cc(Br)c2o1 [Compound 109, 1-METHYL-6-TRIFLUOROMETHYL-3-(7-BROMO-5-FLUORO-2-METHOXYBENZOXAZOL-4-YL)-2,4(1H,3H)-PYRIMIDINEDIONE] | – | – | – | – | – | – | – | – | – | – | – | – | – | – | – | – | – | – | inhibition at 300 g/ha ([1]; Abutilon theophrasti, pre-emergence, read-out: PREEMERGENCE HERBICIDAL ACTIVITY (% CONTROL) ABUTH): 100%; inhibition at 300 g/ha ([2]; Zea mays, post-emergence, read-out: Postemergence herbicidal activity (% control) CRN): 80%; inhibition at 300 g/ha ([3]; Triticum aestivum, pre-emergence, read-out: PREEMERGENCE HERBICIDAL ACTIVITY (% CONTROL) WHT): 100%; inhibition at 300 g/ha ([4]; Sorghum halepense, post-emergence, read-out: Postemergence herbicidal activity (% control) SORHA): 90%; inhibition at 300 g/ha ([5]; Setaria viridis, pre-emergence, read-out: PREEMERGENCE HERBICIDAL ACTIVITY (% CONTROL) SETVI): 100%; inhibition at 300 g/ha ([6]; Triticum aestivum, post-emergence, read-out: Postemergence herbicidal activity (% control) WHT): 90%; inhibition at 300 g/ha ([7]; Zea mays, pre-emergence, read-out: PREEMERGENCE HERBICIDAL ACTIVITY (% CONTROL) CRN): 90%; inhibition at 300 g/ha ([8]; Glycine max, post-emergence, read-out: Postemergence herbicidal activity (% control) SOY): 90%; inhibition at 300 g/ha ([9]; Alopecurus myosuroides, post-emergence, read-out: Postemergence herbicidal activity (% control) ALOMY): 90%; inhibition at 300 g/ha [20]: 100%; inhibition at 300 g/ha ([10]; Sorghum halepense, pre-emergence, read-out: PREEMERGENCE HERBICIDAL ACTIVITY (% CONTROL) SORHA): 100%; inhibition at 300 g/ha ([11]; Ipomoea, pre-emergence, read-out: PREEMERGENCE HERBICIDAL ACTIVITY (% CONTROL) IPOSS): 100%; inhibition at 300 g/ha ([12]; Ipomoea, post-emergence, read-out: Postemergence herbicidal activity (% control) IPOSS): 100%; inhibition at 300 g/ha ([13]; Xanthium strumarium, post-emergence, read-out: Postemergence herbicidal activity (% control) XANPE): 100%; inhibition at 300 g/ha ([15]; Glycine max, pre-emergence, read-out: PREEMERGENCE HERBICIDAL ACTIVITY (% CONTROL) SOY): 100%; inhibition at 300 g/ha ([16]; Abutilon theophrasti, post-emergence, read-out: Postemergence herbicidal activity (% control) ABUTH): 100%; inhibition at 300 g/ha ([17]; Setaria viridis, post-emergence, read-out: Postemergence herbicidal activity (% control) SETVI): 100%; inhibition at 300 g/ha ([18]; Stellaria media, pre-emergence, read-out: PREEMERGENCE HERBICIDAL ACTIVITY (% CONTROL) STEME): 100%; inhibition at 300 g/ha ([19]; Xanthium strumarium, pre-emergence, read-out: PREEMERGENCE HERBICIDAL ACTIVITY (% CONTROL) XANPE): 100%
Cc1cc2c(Cl)ccc(-n3c(=O)cc(C(F)(F)F)n(C)c3=O)c2o1 [Compound 221] | 100 | 60 | 60 | 70 | 100 | 50 | 85 | 95 | 40 | 95 | 100 | 100 | 60 | 100 | 70 | 100 | 70 | 80 | –
